According to patent publication US8512707B2, “Methods of treating drug-resistant cancers” (Seattle Genetics, Inc., priority 2006, dated 2013):
Where two headings read alike, the source gives them in different places. Square brackets hold non-standard residues; d marks the D form. Peptide text beside a SMILES is read from it. * marks the point of attachment. Dolaproine = CO[C@@H]([C@@H]1CCCN1)[C@@H](C)C(=O)O; Dil = CC[C@H](C)[C@H](NC)[C@@H](CC(=O)O)OC; X1 = C[C@@H](N*)[C@@H](O)c1ccccc1; NMeV = CN[C@H](C(=O)O)C(C)C

Tests used:
A2780 and A2780adr = test: Drug sensitivity of parental and drug resistant subline pair (resazurin); type: cell-based, human; details: IC50 of resistant line divided by IC50 of parental line, 96 hr
Protocol: (§1) The following parental and drug resistant cell lines were used to determine their MMAF-drug sensitivity.
(§2) The activity of various drugs against parental and drug resistant subline pairs was tested. The pairs of cell lines tested were A2780 and A2780adr; MES-SA and MES-SA/Dx5; NCI-H69 and NCI-H69/LX-4; and HL60 and HL60/RV. Cell lines were plated and incubated 24 hr. Culture medium containing serial dilutions of the drugs doxorubicin, vincristine, cisplatin, dolastatin 10 or MMAF were then added. The cultures were incubated to 96 hr and labeled with resazurin. Sensitivity to each drug was measured by determining the IC50 of the parent and drug resistant subline pair. The drug resistance (as “fold resistance”) was determined from the IC50 value of the resistant cell line divided by the IC50 value of the parental line. Mean fold resistance is the average across the cell line panel.

NCI-H69 and NCI-H69/LX-4 = test: as above; type: cell-based, human; details: IC50 of resistant line divided by IC50 of parental line, 96 hr
Protocol: as §1, §2

HL60 and HL60/RV = test: as above; type: cell-based; details: IC50 of resistant line divided by IC50 of parental line, 96 hr
Protocol: as §1, §2

MES-SA and MES-SA/Dx5 = test: as above; type: cell-based; details: IC50 of resistant line divided by IC50 of parental line, 96 hr
Protocol: as §1, §2

[1] = test system: parental and drug resistant cell line pairs; test: Drug sensitivity across the panel of parental/drug resistant cell line pairs; type: cell-based; details: for Mean Fold Resistance: average across the cell line panel; for difference in sensitivity of parent and resistant line: statement over all cell line pairs of Table 3
Protocol: as §1, §2

[2] = test system: HCT-15 (colon carcinoma) cells; test: Alteration of drug potency by verapamil, free drugs; type: cell-based; details: for Fold Difference: IC50 drug alone divided by IC50 verapamil plus drug, HCT-15; for IC50: HCT-15, drug alone, 96 hr, resazurin
Protocol: Verapamil is a known inhibitor of the P-gp transporter. The following study was conducted to measure the effect of verapamil on P-gp-mediated transport of doxorubicin, vincristine, cisplatin and MMAF.
HCT-15 (colon carcinoma) cells were plated and allowed to adhere to the plates. Neat culture medium or medium containing 40 μM verapamil was added, and the cultures were incubated for 4 hr. Serial dilutions of doxorubicin, vincristine, cisplatin or MMAF were then added. The cultures were incubated to 96 hr and labeled with resazurin. Referring to Table 4, the values shown are the IC50 determined from 4-parameter curve fits. The fold difference was determined by dividing the IC50 of the drug alone treatment by that of the verapamil plus drug treated cultures.

NCI/ADR-RES cells = test: Cell killing by free drugs or MMAF-ADCs with or without verapamil; type: cell-based; details: for Fold Difference: IC50 drug alone divided by IC50 drug plus verapamil; for IC50: Homo sapiens
Protocol: NCI/ADR-RES cells were plated and allowed to adhere. Neat culture medium or medium containing 40 μM verapamil was added, and the cultures were incubated for 4 hr. Serial dilutions of the free drugs (doxorubicin, cisplatin or MMAF) or MMAF ADCs (cBR96-vcMMAF or mOKT9-vcMMAF) were then added. The cultures were incubated to 96 hr and labeled with resazurin. Referring to Table 7, the values are the IC50 in […] (doxorubicin, cisplatin, MMAF) or […] (cBR96-vcMMAF, mOKT9-vcMMAF) determined from 4-parameter curve fits. The fold difference is determined by dividing the IC50 from the drug alone treatment by that of the drug treated plus verapamil cultures.

H69 and H69/LX4 = test: Cytotoxic effects on H69 and its P-glycoprotein overexpressing counterpart; type: cell-based, human; details: free drugs, 6 days, Alamar Blue (FIG. 2A, 2B)
Protocol: (§3) Log phase cultures of cells were collected and cells plated at seeding densities ranging from 500-10,000 cells/well according to pre-determined conditions. After incubating 24 h to allow surface protein reconstitution, serial dilutions of test molecules were added and cultures incubated a further 4-6 days depending on cell line. Assessment of cellular growth and data reduction to generate IC50 values was done using Alamar Blue (Biosource International, Camarillo, Calif.) dye reduction assay as previously described, according to previously published methods (Doronina et al., supra; Hamblett et al., supra; Law et al., 2004, Clin. Cancer Res. 10:7842-51; Francisco et al., supra). Briefly, a 40% solution (wt/vol) of Alamar Blue was freshly prepared in complete media just before cultures were added. Ninety-two hours after drug exposure, Alamar Blue solution was added to cells to constitute 10% culture volume. Cells were incubated for 4 h, and dye reduction was measured on a Fusion HT fluorescent plate reader (Packard Instruments, Meriden, Conn.).

[3] = test system: HCT-15 (colon carcinoma) cells; test: Alteration of drug potency by verapamil, free drugs; type: cell-based; details: read-out: IC50 +10 μM Verapamil, HCT-15, verapamil 4 hr before drug, 96 hr, resazurin
Karpas 299 cells = test: In vitro growth inhibition (Alamar Blue); type: cell-based, human; details: 96 h
Protocol: as §3

[4] = test system: 786-O renal cell carcinoma; test: In vitro growth inhibition (Alamar Blue); type: cell-based; details: Table 8, free auristatins, 96 h
Protocol: as §3

[5] = test system: Caki-1 renal cell carcinoma; test: In vitro growth inhibition (Alamar Blue); type: cell-based; details: Table 8, free auristatins, 96 h
Protocol: as §3

[6] = test system: H3396 breast carcinoma cells; test: In vitro growth inhibition (Alamar Blue); type: cell-based; details: Table 8, free auristatins, 96 h
Protocol: as §3

[7] = Maximum tolerated dose of free drugs in mice; type: in vivo; details: free drug
From the text: The synthesis of MMAE proceeded through a solution-phase route involving the coupling of the amino-protected N-terminal trimer to the C-terminal dimer. Due to the convergent nature of the process, it was possible to produce a large number of auristatins with varied solubilities, potencies and pharmacokinetic properties. […] MMAF-OMe is a prodrug of MMAF (FIG. 1), with the potential of having facilitated intracellular uptake due to the presence of a neutral C-terminus. In addition, intracellular ester hydrolysis of MMAF-OMe should rapidly generate MMAF, a C-terminally charged molecule expected to have impaired membrane translocation capabilities. […] In addition, the maximum tolerated dose in mice of MMAF (>16 mg/kg) was much higher than MMAE (1 mg/kg). Thus, MMAF was of great interest for targeted delivery, since the free drug had attenuated potency, lower toxicity, and much higher aqueous solubility compared to MMAE. Facilitated intracellular transport was expected to greatly enhance its activity.

hematologic cell lines = details: previously displayed (Doronina et al.; Law et al.); cited from earlier work
DEL = test: In vitro growth inhibition (Alamar Blue); type: cell-based, human; details: 96 h, ADC concentrations represented by the drug component
Protocol: as §3
(§4) Cells were exposed to the ADCs continuously for 96 h, and the cytotoxic effects, as determined by Alamar Blue conversion, were compared to those of free MMAF.

HDLM-2 = test: In vitro growth inhibition (Alamar Blue); type: cell-based, human; details: 96 h, ADC concentrations represented by the drug component
Protocol: as §3, §4

KMH-2 = test: In vitro growth inhibition (Alamar Blue); type: cell-based, human; details: 96 h, ADC concentrations represented by the drug component
Protocol: as §3, §4

L428 = test: In vitro growth inhibition (Alamar Blue); type: cell-based, human; details: 96 h, ADC concentrations represented by the drug component
Protocol: as §3, §4

SR-786 = test: In vitro growth inhibition (Alamar Blue); type: cell-based, human; details: 96 h, ADC concentrations represented by the drug component
Protocol: as §3, §4

SU-DHL-1 = test: In vitro growth inhibition (Alamar Blue); type: cell-based, human; details: 96 h, ADC concentrations represented by the drug component
Protocol: as §3, §4

SUP-M2 = test: In vitro growth inhibition (Alamar Blue); type: cell-based, human; details: 96 h, ADC concentrations represented by the drug component
Protocol: as §3, §4

HH = test: In vitro growth inhibition (Alamar Blue); type: cell-based; details: 96 h, ADC concentrations represented by the drug component
Protocol: as §3, §4

L540cy = test: In vitro growth inhibition (Alamar Blue); type: cell-based; details: 96 h, ADC concentrations represented by the drug component
Protocol: as §3, §4

RPMI 6666 = test: In vitro growth inhibition (Alamar Blue); type: cell-based; details: 96 h, ADC concentrations represented by the drug component
Protocol: as §3, §4

WSU-NHL = test: In vitro growth inhibition (Alamar Blue), CD30 negative line; type: cell-based, human; details: 96 h, ADC concentrations represented by the drug component
Protocol: as §3, §4

[8] = test system: panel of CD30 positive and negative hematologic cell lines; test: In vitro growth inhibition, panel of hematologic cell lines; type: cell-based; details: mean over the lines of Table 9; ADC concentrations represented by the drug component; read-out: IC50 Mean (all lines)
Protocol: as §3, §4

Aqueous solubility = type: physicochemical

SMILES | Fold Resistance A2780adr / A2780 (A2780 and A2780adr) [fold] | Fold Resistance NCI-H69/LX4 / NCI-H69 (NCI-H69 and NCI-H69/LX-4) [fold] | Fold Resistance HL60/RV / HL60 (HL60 and HL60/RV) [fold] | Fold Resistance MES-SA/Dx5 / MES-SA (MES-SA and MES-SA/Dx5) [fold] | Mean Fold Resistance [1] [fold] | Fold Difference [2] | Fold Difference (NCI/ADR-RES cells) [fold] | IC50 (Karpas 299 cells; Table 8, free auristatins) [nM] | IC50 [4] [nM] | IC50 [5] [nM] | IC50 [6] [nM] | other results
N.N.[Cl][Pt][Cl] [Cisplatin] | 2.7 | 4.7 | 13 | 1.6 | 5.5 | 1.04 fold | 0.88 |  |  |  |  | difference in sensitivity of parent and resistant line [1]: thirteen
CC[C@H](C)[C@@H]([C@@H](CC(=O)N1CCC[C@H]1[C@H](OC)[C@@H](C)C(=O)N[C@@H](Cc1ccccc1)c1nccs1)OC)N(C)C(=O)[C@@H](NC(=O)[C@H](C(C)C)N(C)C)C(C)C [Dolastatin 10] | 500 |  |  | 8275 | >500 |  |  |  |  |  |  | 
COc1cccc2c1C(=O)c1c(O)c3c(c(O)c1C2=O)C[C@@](O)(C(=O)CO)C[C@@H]3O[C@H]1C[C@H](N)[C@H](O)[C@H](C)O1 [Doxorubicin] | 137 | 103 | 24 | 83 | 88 | 5.4 fold | 17.9 |  |  |  |  | IC50 ([2]; Homo sapiens): 335 nM; IC50 (NCI/ADR-RES cells; 96 h, read-out: IC50 Drug or ADC Only): 10000 nM; IC50 (NCI/ADR-RES cells; read-out: IC50 (Drug or ADC) + 10 μM Verapamil): 560 nM; fold less sensitive H69/LX-4 compared to the parental cell (H69 and H69/LX4): approximately 100 fold; IC50 ([3]; Homo sapiens): 62 nM
CC[C@H](C)[C@@H]([C@@H](CC(=O)N1CCC[C@H]1[C@H](OC)[C@@H](C)C(=O)N[C@H](C)[C@@H](O)c1ccccc1)OC)N(C)C(=O)[C@@H](NC(=O)[C@@H](NC)C(C)C)C(C)C [MMAE, reference compound] (H-[NMeV]V[Dil][Dolaproine]-X1) |  |  |  |  |  |  |  | 0.5 | 2 | 0.7 | 0.1 | maximum tolerated dose in mice [7]: 1 mg/kg; IC50 (hematologic cell lines): 1 to 5 nM
CC[C@H](C)[C@@H]([C@@H](CC(=O)N1CCC[C@H]1[C@H](OC)[C@@H](C)C(=O)N[C@@H](Cc1ccccc1)C(=O)O)OC)N(C)C(=O)[C@@H](NC(=O)[C@@H](NC)C(C)C)C(C)C [MMAF, N-methylvaline-valine-dolaisoleuine-dolaproline-phenylalanine] (H-[NMeV]V[Dil][Dolaproine]F-OH) | 7.5 | 4 | 6 | 3 | 5 | 5.7 fold | 6.4 | 119 | 257 | 200 | 105 | difference in sensitivity of parent and resistant line [1]: thirteen; IC50 [2]: 1000 nM; IC50 (Karpas 299 cells; ADC concentrations represented by the drug component): 119 nM; IC50 (DEL): 69 nM; IC50 (HDLM-2): 66 nM; IC50 (KMH-2): 45.4 nM; IC50 (L428): 68 nM; IC50 (SR-786): 38.1 nM; IC50 (SU-DHL-1): 34.7 nM; IC50 (SUP-M2): 79.7 nM; IC50 (HH): 30.7 nM; IC50 (L540cy): 70.4 nM; IC50 (RPMI 6666): 164 nM; IC50 (WSU-NHL): 60.3 nM; IC50 [8]: 70.4 nM; fold less sensitive H69/LX-4 compared to the parental cell (H69 and H69/LX4): 3 fold; maximum tolerated dose in mice [7]: > 16 mg/kg; aqueous solubility compared to MMAE (Aqueous solubility): much higher; IC50 [3]: 174 nM
CC[C@H](C)[C@@H]([C@@H](CC(=O)N1CCC[C@H]1[C@H](OC)[C@@H](C)C(=O)N[C@@H](Cc1ccccc1)C(=O)OC)OC)N(C)C(=O)[C@@H](NC(=O)[C@@H](NC)C(C)C)C(C)C [MMAF-OMe] (H-[NMeV]V[Dil][Dolaproine]F-OMe) |  |  |  |  |  |  |  | < 0.001 | 0.01 | < 0.001 | < 0.001 | 
CC[C@]1(O)C[C@H]2CN(CCc3c([nH]c4ccccc34)[C@@](C(=O)OC)(c3cc4c(cc3OC)N(C=O)[C@H]3[C@@](O)(C(=O)OC)[C@H](OC(C)=O)[C@]5(CC)C=CCN6CC[C@]43[C@@H]65)C2)C1 [Vincristine] | 2000 | 56888 | 258 | 284 | >260 | >10,000 fold |  |  |  |  |  | IC50 ([2]; Homo sapiens): 70 nM; IC50 ([3]; Homo sapiens): < 0.001 nM
